From publication PMC2748827 (Nature, 2009)

Tested on: A/Kawasaki/UTK-4/09 (H1N1)
Assay type: cell-based, influenza A virus (H1N1)

CCOC(=O)C1=C[C@@H](OC(CC)CC)[C@H](NC(C)=O)[C@@H](N)C1 [oseltamivir]
susceptibility of virus in cell culture (in words): resistance
